Measurements taken from patent publication US10336765B2, “Dihydropyranopyrimidinone derivatives, and use thereof” (St Pharm Co., LTD, priority 2015, dated 2019).

molecular target: T1, tankyrase 1 (Homo sapiens, UniProt O95271); assay: Analysis of activity of tankyrase 1 (Trevigen kit, ELISA absorbance at 450 nm); format: biochemical; settings: not given
T1 construct: purchased Trevigen 4700-096-K
T1 sequence (O95271 1-1327): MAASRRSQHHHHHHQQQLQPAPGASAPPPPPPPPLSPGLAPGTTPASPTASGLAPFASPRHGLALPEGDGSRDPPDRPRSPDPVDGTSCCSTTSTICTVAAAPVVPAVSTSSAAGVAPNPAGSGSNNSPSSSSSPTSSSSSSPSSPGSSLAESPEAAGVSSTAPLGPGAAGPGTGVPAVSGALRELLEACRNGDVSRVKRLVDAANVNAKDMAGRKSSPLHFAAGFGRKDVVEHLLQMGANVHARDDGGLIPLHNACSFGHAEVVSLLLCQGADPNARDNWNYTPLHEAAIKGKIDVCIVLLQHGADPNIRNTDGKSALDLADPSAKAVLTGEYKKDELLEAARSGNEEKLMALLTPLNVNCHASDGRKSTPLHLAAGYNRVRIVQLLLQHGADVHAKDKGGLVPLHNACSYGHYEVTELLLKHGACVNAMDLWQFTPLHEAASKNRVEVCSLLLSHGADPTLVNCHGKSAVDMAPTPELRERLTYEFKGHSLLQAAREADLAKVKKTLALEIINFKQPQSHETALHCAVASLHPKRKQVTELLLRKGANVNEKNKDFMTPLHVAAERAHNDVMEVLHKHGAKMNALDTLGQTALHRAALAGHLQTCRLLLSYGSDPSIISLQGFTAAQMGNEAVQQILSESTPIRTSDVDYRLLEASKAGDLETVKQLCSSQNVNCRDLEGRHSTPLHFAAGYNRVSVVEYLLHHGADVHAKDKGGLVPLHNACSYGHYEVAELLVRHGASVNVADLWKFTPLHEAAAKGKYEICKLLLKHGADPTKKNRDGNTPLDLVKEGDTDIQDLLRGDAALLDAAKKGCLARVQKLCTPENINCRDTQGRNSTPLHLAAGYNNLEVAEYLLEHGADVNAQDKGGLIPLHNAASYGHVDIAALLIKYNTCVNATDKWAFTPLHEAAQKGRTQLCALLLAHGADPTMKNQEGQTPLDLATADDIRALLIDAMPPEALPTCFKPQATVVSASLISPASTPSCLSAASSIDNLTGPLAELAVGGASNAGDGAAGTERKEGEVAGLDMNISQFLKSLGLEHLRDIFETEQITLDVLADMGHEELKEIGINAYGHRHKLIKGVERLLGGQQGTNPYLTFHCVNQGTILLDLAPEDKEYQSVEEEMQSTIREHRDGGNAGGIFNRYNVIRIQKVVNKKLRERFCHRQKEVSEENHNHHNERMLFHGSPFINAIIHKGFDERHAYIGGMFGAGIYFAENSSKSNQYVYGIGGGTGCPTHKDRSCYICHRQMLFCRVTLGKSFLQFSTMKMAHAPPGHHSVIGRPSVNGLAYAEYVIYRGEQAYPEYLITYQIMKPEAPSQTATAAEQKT
Description: Activities of novel compounds synthesized according to Examples 1 to 13 against tankyrase 1 were analyzed using a Trevigen kit (Cat. No. 4700-096-K). Poly PAR histone protein-coated 96-well plate, anti-PAR monoclonal antibody and goat anti-mouse IgG-HRP were used for measurement of absorbance by ELISA method. Specifically, 20×I-PAR assay buffer was diluted to 1× by adding water, and 50 μL of the diluted buffer was added to each well of the 96-well plate followed by reacting at rt for 30 min. Then, the supernatant was completely removed from each well and 10 μL of 1×I-PAR assay buffer and 15 μL of assay substrate were added to each well along with 1 μL of a 50× solution of inhibitors to be tested, which were the compounds obtained in the Examples 1 to 13. 10 mUnits/μL of tankyrase 1 enzyme was diluted 50-fold with 1×I-PAR assay buffer and 25 μL of the diluted enzyme was added to each well and reacted while stirring at rt for 30 min. One without any compound of the present invention was used as a positive control and another containing 1×I-PAR assay buffer with the same volume instead of tankyrase 1 enzyme was used as a negative control.
Upon completion of the reaction, 200 μL of PBSX, which was prepared by adding 0.1% triton X-100 to PBS, was added and removed and this washing process was repeated twice. Washing was repeated twice more using PBS in the same manner. 5× antibody diluent was diluted with distilled water to 1× concentration, 50 μL of the diluted goat anti-mouse IgG-HRP to 1/2000 was added to each well and reacted while stirring at rt for 30 min. Washes were carried out twice using PBSX and PBS, respectively. After adding 50 μL of TACS-sapphire to each well of the plate, the plate was blocked from light to react for 10 min to 15 min and the color of the reaction solution turned blue. To stop the reaction, 50 μL of 0.2N HCl was added to turn the solution yellow. Finally, the absorbance of the resulting solution was measured at 450 nm.

| IC50 [nM] | SMILES |
| --- | --- |
| 27.2 | COCCOc1cc(F)c(N2CCN(c3nc4c(c(=O)[nH]3)COCC4)CC2)c(F)c1 [Example 1, 2-(4-(2,6-difluoro-4-(2-methoxyethoxy)phenyl)piperazin-1-yl)-7,8-dihydro-3H-pyrano[4,3-d]pyrimidin-4(5H)-one] |

same assay, conditions: Trevigen kit Cat. No. 4700-096-K; reacted at rt for 30 min; absorbance at 450 nm; read-out: TNKS1 (IC50)

| IC50 [nM] | SMILES |
| --- | --- |
| 36.8 | CN1CCN(Cc2cc(F)c(N3CCN(c4nc5c(c(=O)[nH]4)COCC5)CC3)c(F)c2)CC1 [Example 6, 2-(4-(2,6-difluoro-4-((4-methylpiperazin-1-yl)methyl)phenyl)piperazin-1-yl)-7,8-dihydro-3H-pyrano[4,3-d]pyrimidin-4(5H)-one] |
| 803 | Cn1nnc(C2CCN(c3nc4c(c(=O)[nH]3)COCC4)CC2)n1 [Example 9, 2-(4-(2-methyl-2H-tetrazol-5-yl)piperidin-1-yl)-7,8-dihydro-3H-pyrano[4,3-d]pyrimidin-4(5H)-one] |
| 40.6 | O=c1[nH]c(N2CCN(c3c(F)cc(OCCN4CCOCC4)cc3F)CC2)nc2c1COCC2 [Example 2, 2-(4-(2,6-difluoro-4-(2-morpholinoethoxy)phenyl)piperazin-1-yl)-7,8-dihydro-3H-pyrano[4,3-d]pyrimidin-4(5H)-one] |
| 162 | COCCOc1cc(F)c(C2(O)CCN(c3nc4c(c(=O)[nH]3)COCC4)CC2)c(F)c1 [Example 8, 2-(4-(2,6-difluoro-4-(2-methoxyethoxy)phenyl)-4-hydroxypiperidin-1-yl)-7,8-dihydro-3H-pyrano[4,3-d]pyrimidin-4(5H)-one] |
| 40.3 | O=c1[nH]c(N2CCN(c3c(F)cc(OCCN4CCCCC4)cc3F)CC2)nc2c1COCC2 [Example 3, 2-(4-(2,6-difluoro-4-(2-(piperidin-1-yl)ethoxy)phenyl)piperazin-1-yl)-7,8-dihydro-3H-pyrano[4,3-d]pyrimidin-4(5H)-one] |
| 26.1 | O=c1[nH]c(N2CCN(c3c(F)cc(OCC(O)CO)cc3F)CC2)nc2c1COCC2 (stereo not shown) [Example 5, 2-(4-(4-(2,3-dihydroxypropoxy)-2,6-difluorophenyl)piperazin-1-yl)-7,8-dihydro-3H-pyrano[4,3-d]pyrimidin-4(5H)-one] |
| 74.4 | COCCOc1cc(F)c(C2CCN(c3nc4c(c(=O)[nH]3)COCC4)CC2)c(F)c1 [Example 11, 2-(4-(2,6-difluoro-4-(2-methoxyethoxy)phenyl)piperidin-1-yl)-7,8-dihydro-3H-pyrano[4,3-d]pyrimidin-4(5H)-one] |
| 26.6 | O=c1[nH]c(N2CCN(c3c(F)cc(OCCO)cc3F)CC2)nc2c1COCC2 [Example 4, 2-(4-(2,6-difluoro-4-(2-hydroxyethoxy)phenyl)piperazin-1-yl)-7,8-dihydro-3H-pyrano[4,3-d]pyrimidin-4(5H)-one] |
| 34.2 | O=C(COc1cc(F)c(N2CCN(c3nc4c(c(=O)[nH]3)COCC4)CC2)c(F)c1)N1CCCCC1 [Example 10, 2-(4-(2,6-difluoro-4-(2-oxo-2-(piperidin-1-yl)ethoxy)phenyl)piperazin-1-yl)-7,8-dihydro-3H-pyrano[4,3-d]pyrimidin-4(5H)-one] |
| 33.6 | CCN(CC)CCOc1cc(F)c(N2CCN(c3nc4c(c(=O)[nH]3)COCC4)CC2)c(F)c1 [Example 12, 2-(4-(4-(2-(diethylamino)ethoxy)-2,6-difluorophenyl)piperazin-1-yl)-7,8-dihydro-3H-pyrano[4,3-d]pyrimidin-4(5H)-one] |
| 21.8 | CC(O)c1cc(F)c(N2CCN(c3nc4c(c(=O)[nH]3)COCC4)CC2)c(F)c1 (stereo not shown) [Example 7, 2-(4-(2,6-difluoro-4-(1-hydroxyethyl)phenyl)piperazin-1-yl)-7,8-dihydro-3H-pyrano[4,3-d]pyrimidin-4(5H)-one] |
| 25.4 | O=c1[nH]c(N2CCN(c3c(F)cc(OCCn4ccnc4)cc3F)CC2)nc2c1COCC2 [Example 13, 2-(4-(4-(2-(1H-imidazol-1-yl)ethoxy)-2,6-difluorophenyl)piperazin-1-yl)-7,8-dihydro-3H-pyrano[4,3-d]pyrimidin-4(5H)-one] |
